What was measured:
Assay type in all cases: cell-based
[1] = target: T1, WT TRPV1 (Rattus norvegicus, UniProt O35433); assay: Two-electrode voltage-clamp in Xenopus oocytes, WT TRPV1; settings: 100 nM RTx, +60 and -60 mV
T1 construct: expressed in transfected cells; host or cells: Xenopus oocytes (cRNA injection, pGEM-HE)
Description: (§1) To further investigate the putative vanilloid binding pocket in TRPV1, we inspected the cryo-EM structure of TRPV1, looking for residues that are located nearby to the putative RTx density (Figure 1B; regions/residues highlighted in yellow) and that differ between TRPV1 and TRPV2 channels (Figure 3—figure supplement 1; regions highlighted in magenta). […] To quantify the contribution of each of these residues to TRPV1 channel activation by RTx under our experimental conditions, we mutated each to the corresponding residue in TRPV2. We then expressed each construct in oocytes and used the two electrode voltage-clamp technique to study activation by RTx and by the non-specific TRPV channel activator 2-APB. We recorded time courses for channel activation by each agonist while stepping the membrane potential from −60 to +60 mV every 3 s from a holding potential of 0 mV using an external recording solution containing 100 mM KCl (internal K^+ concentration in a healthy oocyte is 100 mM) (Figure 3A, left). We also recorded current-voltage (I-V) relations by stepping over a wider range of voltages in the absence and presence of activators, or in the presence of ruthenium red (RR), a non-specific inhibitor of TRP channels (Figure 3A, right).
The WT rat TRPV1 and TRPV2 channels in the pcDNA3.1 vector were kindly provided by Dr. David Julius (UCSF) ([Caterina et al., 1997]; [Caterina et al., 1999]) and subcloned into the pGEM-HE vector ([Liman et al., 1992]). Mutations were introduced into rTRPV1 using a two-step PCR mutagenesis technique and the resulting constructs were verified by sequencing. All channel constructs were expressed in Xenopus oocytes and studied following 1–4 days incubation after cRNA injection (incubated at 17°C in 96 mM NaCl, 2 mM KCl, 5 mM HEPES, 1 mM MgCl2 and 1.8 mM CaCl2, 50 μg/ml gentamycin, pH 7.6 with NaOH) using the two-electrode voltage-clamp recording technique (OC-725C, Warner Instruments, Hamden, CT) with a 150 μl recording chamber. Data were filtered at 1–3 kHz and digitized at 20 kHz using pClamp software (Molecular Devices, Sunnyvale, CA). […]

[2] = target: T2, TRPV1 QM (S512F, M547L, T550L, E570Q) (Rattus norvegicus, UniProt O35433, E570Q/M547L/S512F/T550L); assay: Two-electrode voltage-clamp in Xenopus oocytes, TRPV1 QM; settings: 100 nM RTx
T2 construct: expressed in transfected cells; host or cells: Xenopus oocytes (cRNA injection)
T2 sequence (O35433 whole entry S512F/M547L/T550L/E570Q): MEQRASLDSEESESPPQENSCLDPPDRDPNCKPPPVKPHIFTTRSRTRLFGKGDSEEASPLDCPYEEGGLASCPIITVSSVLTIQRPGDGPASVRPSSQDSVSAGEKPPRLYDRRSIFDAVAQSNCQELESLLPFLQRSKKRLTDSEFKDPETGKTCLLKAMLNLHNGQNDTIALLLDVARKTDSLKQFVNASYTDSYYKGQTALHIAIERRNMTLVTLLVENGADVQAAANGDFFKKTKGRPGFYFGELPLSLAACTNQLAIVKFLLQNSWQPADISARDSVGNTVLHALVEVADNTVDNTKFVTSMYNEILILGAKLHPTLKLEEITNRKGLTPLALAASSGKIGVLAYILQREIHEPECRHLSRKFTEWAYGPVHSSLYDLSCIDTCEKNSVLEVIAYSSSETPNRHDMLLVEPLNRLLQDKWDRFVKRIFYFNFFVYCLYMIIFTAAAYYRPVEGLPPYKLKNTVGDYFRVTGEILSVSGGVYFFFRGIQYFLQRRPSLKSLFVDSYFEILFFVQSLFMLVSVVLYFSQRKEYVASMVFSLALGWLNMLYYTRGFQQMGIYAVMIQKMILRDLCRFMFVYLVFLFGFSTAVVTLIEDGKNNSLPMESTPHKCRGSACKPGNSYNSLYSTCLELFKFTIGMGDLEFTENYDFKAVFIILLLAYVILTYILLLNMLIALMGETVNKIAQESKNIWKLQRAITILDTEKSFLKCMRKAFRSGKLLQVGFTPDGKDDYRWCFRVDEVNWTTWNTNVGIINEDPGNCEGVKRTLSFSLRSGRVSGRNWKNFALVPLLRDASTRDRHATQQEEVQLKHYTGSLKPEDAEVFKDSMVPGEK
Description: as §1, with “right). […]” for “right).”

[3] = target: T3, TRPV1 S512F/M547L (Rattus norvegicus, UniProt O35433, M547L/S512F); assay: Two-electrode voltage-clamp in Xenopus oocytes, TRPV1 S512F/M547L; settings: 100 nM RTx
T3 construct: expressed in transfected cells; host or cells: Xenopus oocytes (cRNA injection)
T3 sequence (O35433 whole entry S512F/M547L): as the sequence (O35433 whole entry S512F/M547L/T550L/E570Q) above, with L550T, Q570E counted along it
Description: as §1, with “right). […]” for “right).”

[4] = target: T4, TRPV1 S512F/T550L (Rattus norvegicus, UniProt O35433, S512F/T550L); assay: Two-electrode voltage-clamp in Xenopus oocytes, TRPV1 S512F/T550L; settings: 100 nM RTx
T4 construct: expressed in transfected cells; host or cells: Xenopus oocytes (cRNA injection)
T4 sequence (O35433 whole entry S512F/T550L): as the sequence (O35433 whole entry S512F/M547L/T550L/E570Q) above, with L547M, Q570E counted along it
Description: as §1, with “right). […]” for “right).”

[5] = target: T5, TRPV2 F472S/L510T (Rattus norvegicus, UniProt Q9WUD2, F472S/L510T); assay: Two-electrode voltage-clamp in Xenopus oocytes, TRPV2 F472S/L510T; settings: 100 nM RTx
T5 construct: expressed in transfected cells; host or cells: Xenopus oocytes (cRNA injection)
T5 sequence (Q9WUD2 whole entry F472S/L510T): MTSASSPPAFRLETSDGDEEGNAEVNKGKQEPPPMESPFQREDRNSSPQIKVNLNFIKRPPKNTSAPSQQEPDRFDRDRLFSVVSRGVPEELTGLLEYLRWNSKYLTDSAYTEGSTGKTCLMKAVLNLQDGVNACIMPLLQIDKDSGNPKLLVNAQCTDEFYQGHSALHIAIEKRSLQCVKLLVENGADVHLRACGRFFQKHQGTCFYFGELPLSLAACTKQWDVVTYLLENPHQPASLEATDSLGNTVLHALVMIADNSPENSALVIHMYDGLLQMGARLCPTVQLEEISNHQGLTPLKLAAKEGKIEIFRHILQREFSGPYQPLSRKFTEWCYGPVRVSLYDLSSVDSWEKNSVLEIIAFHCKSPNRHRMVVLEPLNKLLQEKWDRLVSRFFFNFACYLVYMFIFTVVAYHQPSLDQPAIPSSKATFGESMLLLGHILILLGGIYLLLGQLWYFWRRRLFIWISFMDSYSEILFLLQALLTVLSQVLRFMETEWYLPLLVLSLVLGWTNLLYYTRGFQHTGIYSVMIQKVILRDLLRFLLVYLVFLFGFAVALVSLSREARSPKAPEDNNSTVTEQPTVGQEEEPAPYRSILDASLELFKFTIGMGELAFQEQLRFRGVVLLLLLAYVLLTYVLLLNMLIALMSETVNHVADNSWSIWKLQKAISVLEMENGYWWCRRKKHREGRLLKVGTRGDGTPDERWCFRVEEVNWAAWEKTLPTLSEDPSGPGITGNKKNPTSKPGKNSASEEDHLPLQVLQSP
Description: as §1, with “right). […]” for “right).”

T1 sequence (O35433 whole entry): as the sequence (O35433 whole entry S512F/M547L/T550L/E570Q) above, with F512S, L547M, L550T, Q570E counted along it

Question: What does the source list for `C=C(C)[C@]12C[C@@H](C)[C@@]34O[C@](Cc5ccccc5)(O[C@@H]1[C@@H]3C=C(COC(=O)Cc1ccc(O)c(OC)c1)C[C@]1(O)C(=O)C(C)=C[C@@H]41)O2` [RTx, resiniferatoxin]?
Answer: channel activation by RTx [1]: effectively irreversible activation; channel activation by RTx [2]: completely lost sensitivity; channel activation by RTx [3]: lost sensitivity; channel activation by RTx [4]: lost sensitivity; channel activation by RTx [5]: sensitive to RTx

Reference: article PMC4907692, “Engineering vanilloid-sensitivity into the rat TRPV2 channel” (eLife, 2016)
